Assay results reported in PubChem BioAssay AID248 (DTP/NCI, 2004).
“And” between values parts separate entries of the source, which are not always exact repeats. Equal entries are not always repeated. Toxic doses and inconclusive results are not listed. No stated cut-off is given here; in the data, active means T/C of 150% or more; inactive means T/C below 125%. Peptide text beside a SMILES is read from it. * marks the point of attachment. Cbz = O=C(OCc1ccccc1)*

Test system: L1210 leukemia ip in BDF1 mice, survival T/C
Assay: NCI In Vivo Anticancer Drug Screen. Data for tumor model L1210 Leukemia (intraperitoneal) in B6D2F1 (BDF1) mice
Conditions: endpoint: mean survival time, higher = longer survival
Method in brief: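 Read-out is survival time, reported as the treated-group measurement over the vehicle-control measurement.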

[1] = dose: 100.0 mg/kg/injection, schedule: Q01DX009 (ip), vehicle: saline
[2] = dose: 100.0 mg/kg/injection, schedule: Q04DX003 (ip), vehicle: saline
[3] = dose: 200.0 mg/kg/injection, schedule: Q01DX009 (ip), vehicle: saline
[4] = dose: 200.0 mg/kg/injection, schedule: Q04DX003 (ip), vehicle: saline
[5] = dose: 400.0 mg/kg/injection, schedule: Q01DX009 (ip), vehicle: saline
[6] = dose: 100.0 mg/kg/injection, schedule: Q04DX002 (ip), vehicle: Klucel (hydroxypropylcellulose) (HPC)
[7] = dose: 200.0 mg/kg/injection, schedule: Q04DX002 (ip), vehicle: Klucel (hydroxypropylcellulose) (HPC)
[8] = dose: 400.0 mg/kg/injection, schedule: Q04DX002 (ip), vehicle: Klucel (hydroxypropylcellulose) (HPC)
[9] = dose: 100.0 mg/kg/injection, schedule: Q04DX003 (ip), vehicle: Klucel (hydroxypropylcellulose) (HPC)

Measured: T/C

CC(C)C(NC(=O)C1CCCN1C(=O)OCc1ccccc1)C(=O)O (stereo not drawn) (Cbz-Pro-Val-OH; configuration not given here)
inactive: dose: 100.0 mg/kg/injection, schedule: Q01DX009 (ip), vehicle: saline sonified 102 % of control | dose: 100.0 mg/kg/injection, schedule: Q04DX003 (ip), vehicle: saline sonified 97 % of control | dose: 200.0 mg/kg/injection, schedule: Q01DX009 (ip), vehicle: saline sonified 92 % of control | dose: 200.0 mg/kg/injection, schedule: Q04DX003 (ip), vehicle: saline sonified 96 % of control | dose: 400.0 mg/kg/injection, schedule: Q01DX009 (ip), vehicle: saline sonified 97 % of control | dose: 400.0 mg/kg/injection, schedule: Q04DX003 (ip), vehicle: saline sonified 97 % of control

C1CCC(C2OCCO2)CC1
inactive: [1] 98 % of control | [2] 97 % of control | [3] 118 % of control | [4] 94 % of control | [5] 88 % of control | dose: 400.0 mg/kg/injection, schedule: Q04DX003 (ip), vehicle: saline 92 % of control

NCCCCCCCCCCC(=O)O
inactive: [6] 115 % of control | [7] 95 % of control | [8] 101 % of control

O=P(CCCCCCCCCCP(=O)(c1ccccc1)c1ccccc1)(c1ccccc1)c1ccccc1
inactive: dose: 100.0 mg/kg/injection, schedule: Q01DX001 (ip), vehicle: saline 91 % of control | dose: 200.0 mg/kg/injection, schedule: Q01DX001 (ip), vehicle: saline 92 % of control | dose: 400.0 mg/kg/injection, schedule: Q01DX001 (ip), vehicle: saline 92 % of control

CCCCSC(N)=O
inactive: dose: 100.0 mg/kg/injection, schedule: Q01DX009 (ip), vehicle: saline with Tween-80 103 % of control | [6] 94 % of control | dose: 200.0 mg/kg/injection, schedule: Q01DX009 (ip), vehicle: saline with Tween-80 105 % of control | [7] 97 % of control | dose: 400.0 mg/kg/injection, schedule: Q01DX009 (ip), vehicle: saline with Tween-80 119 % of control | [8] 90 % of control

IC1=CC2CCC(C1)C2 (stereo not given)
inactive: dose: 100.0 mg/kg/injection, schedule: Q01DX009 (ip), vehicle: acetone 109 % of control | dose: 200.0 mg/kg/injection, schedule: Q01DX009 (ip), vehicle: acetone 97 % of control

CN(C)S(=O)(=O)c1ccc(CC(=O)c2ccccc2)cc1
inactive: dose: 100.0 mg/kg/injection, schedule: Q01DX001 (ip), vehicle: carboxymethylcellulose (CMC) 115 % of control | dose: 200.0 mg/kg/injection, schedule: Q01DX001 (ip), vehicle: carboxymethylcellulose (CMC) 98 % of control | dose: 400.0 mg/kg/injection, schedule: Q01DX001 (ip), vehicle: carboxymethylcellulose (CMC) 96 % of control

C=CCOCC(O)CN1CCC(C)CC1 (stereo not given)
inactive: dose: 6.0 mg/kg/injection, schedule: Q04DX003 (ip), vehicle: Klucel (hydroxypropylcellulose) (HPC) 95 % of control | dose: 12.0 mg/kg/injection, schedule: Q04DX003 (ip), vehicle: Klucel (hydroxypropylcellulose) (HPC) 95 % of control | dose: 25.0 mg/kg/injection, schedule: Q04DX003 (ip), vehicle: Klucel (hydroxypropylcellulose) (HPC) 97 % of control | dose: 50.0 mg/kg/injection, schedule: Q04DX003 (ip), vehicle: Klucel (hydroxypropylcellulose) (HPC) 98 % of control | [9] 95 % of control

COC1=CCC2=C(CCO2)C1
inactive: dose: 100.0 mg/kg/injection, schedule: Q04DX003 (ip), vehicle: acetone 95 % of control | dose: 200.0 mg/kg/injection, schedule: Q04DX003 (ip), vehicle: acetone 95 % of control | dose: 400.0 mg/kg/injection, schedule: Q04DX003 (ip), vehicle: acetone 96 % of control

Clc1nccc2n[nH]nc12
inactive: dose: 100.0 mg/kg/injection, schedule: Q01DX001 (ip), vehicle: other 94 % of control | dose: 100.0 mg/kg/injection, schedule: Q04DX003 (ip), vehicle: other 103 % of control | dose: 200.0 mg/kg/injection, schedule: Q01DX001 (ip), vehicle: other 91 % of control | dose: 200.0 mg/kg/injection, schedule: Q04DX003 (ip), vehicle: other 100 % of control | dose: 400.0 mg/kg/injection, schedule: Q01DX001 (ip), vehicle: other 103 % of control | dose: 400.0 mg/kg/injection, schedule: Q04DX003 (ip), vehicle: other 107 % of control

COc1ccc(-n2c(=O)c(N=Nc3ccccc3)c(O)n(-c3ccc(I)cc3)c2=S)cc1
inactive: dose: 100.0 mg/kg/injection, schedule: Q04DX003 (ip), vehicle: saline with Tween-80 97 % of control | dose: 200.0 mg/kg/injection, schedule: Q04DX003 (ip), vehicle: saline with Tween-80 100 % of control | dose: 400.0 mg/kg/injection, schedule: Q04DX003 (ip), vehicle: saline with Tween-80 116 % of control

O=c1oc2ccccc2c(N2CCCCC2)c1Cl
inactive: dose: 100.0 mg/kg/injection, schedule: Q04DX002 (ip), vehicle: gum acacia 111 % of control | dose: 200.0 mg/kg/injection, schedule: Q04DX002 (ip), vehicle: gum acacia 104 % of control | dose: 400.0 mg/kg/injection, schedule: Q04DX002 (ip), vehicle: gum acacia 93 % of control

CN(N(P(N)(Cl)(c1ccccc1)c1ccccc1)P(N)(Cl)(c1ccccc1)c1ccccc1)P(N)(Cl)(c1ccccc1)c1ccccc1
inactive: dose: 100.0 mg/kg/injection, schedule: Q01DX001 (ip), vehicle: steriod suspending solution 113 % of control | dose: 200.0 mg/kg/injection, schedule: Q01DX001 (ip), vehicle: steriod suspending solution 108 % of control

CCCC(CCC)NCC(C)O (stereo not given)
inactive: dose: 75.0 mg/kg/injection, schedule: Q01DX001 (ip), vehicle: acid diluted with saline 104 % of control

CCOC(=O)C(NC(=O)CCl)C(=O)OCC
inactive: dose: 50.0 mg/kg/injection, schedule: Q01DX009 (ip), vehicle: Klucel (hydroxypropylcellulose) (HPC) 91 % of control | dose: 100.0 mg/kg/injection, schedule: Q01DX009 (ip), vehicle: Klucel (hydroxypropylcellulose) (HPC) 94 % of control | [9] 100 % of control | dose: 200.0 mg/kg/injection, schedule: Q01DX009 (ip), vehicle: Klucel (hydroxypropylcellulose) (HPC) 91 % of control | dose: 200.0 mg/kg/injection, schedule: Q04DX003 (ip), vehicle: Klucel (hydroxypropylcellulose) (HPC) 91 % of control

COc1ccc(CSC(=S)Nc2ccc(Cl)c(Cl)c2)cc1
inactive: dose: 50.0 mg/kg/injection, schedule: Q04DX003 (ip), vehicle: saline 101 % of control | [2] 108 % of control | [4] 93 % of control

O=CC(Cl)Cl
inactive: [1] 92 % of control | [3] 110 % of control | [5] 108 % of control

CCCCCCCCOC(=O)CCCCl
inactive: dose: 100.0 mg/kg/injection, schedule: Q04DX002 (ip), vehicle: saline with Tween-80 107 % of control | dose: 200.0 mg/kg/injection, schedule: Q04DX002 (ip), vehicle: saline with Tween-80 100 % of control | dose: 400.0 mg/kg/injection, schedule: Q04DX002 (ip), vehicle: saline with Tween-80 102 % of control

C/C=C/C=C/COC(=O)CCCCCC
inactive: dose: 100.0 mg/kg/injection, schedule: Q04DX002 (ip), vehicle: saline 98 % of control and 108 % of control | dose: 200.0 mg/kg/injection, schedule: Q04DX002 (ip), vehicle: saline 108 % of control and 119 % of control | dose: 400.0 mg/kg/injection, schedule: Q04DX002 (ip), vehicle: saline 107 % of control | dose: 600.0 mg/kg/injection, schedule: Q04DX002 (ip), vehicle: saline 98 % of control

CC1NCCC1CO (stereo not given)
inactive: dose: 50.0 mg/kg/injection, schedule: Q01DX009 (ip), vehicle: saline 104 % of control | [1] 97 % of control | [2] 96 % of control | [3] 94 % of control | [4] 104 % of control
